What was measured:
[1] = Clearance in rat hepatocytes; format: in vitro ADME; conditions: test compound 0.5 μM, 1×10^6 cells/mL, scaled to rat body weight
Experimental: Test compound concentration is 0.5 μM and cell concentration is 1×10^6 cells/mL in the incubation. The described method is manual and is based on a 24-well format.
The liver is collected from a male Spraque-Dawley rat. One liver lobe is cut off and flushed with various buffers to loosen the cells. The cell suspension is washed and centrifuged, and the cell density is adjusted to 1.2×10^6 cells/mL with Krebs-Henseleit buffer, pH 7.4, containing 0.2% bovine serum albumin (BSA). Only cell suspensions with viability above 80% are used.
A volume of 315 μL cell suspension per well is added to 24-well plates and preincubated at 37° C. for 20 min. Test compound (0.5 μM) is added, and the mixture is incubated for 20 minutes. Incubations are run in duplicate. Samples are withdrawn at predetermined stop times and mixed with methanol containing internal standard (IS) to terminate all enzyme activity and precipitate proteins.
The percentage of organic solvent in the incubations is less than 1%. Careful inspections of reagents are performed prior to the start of any experiment to ensure all reagents are in solution.
The 24-well plates are centrifuged. Test compound depletion, using a compound specific LC/MS/MS method, is determined. The logarithm of the peak area ratios of test compound to internal standard (IS) versus incubation time is plotted in a graph
The rate constant (k) (min^−1) of test compound depletion is calculated from the linear part of the curve and the half-time (t1/2) in minutes can be calculated from the rate constant (Eq. 1). t1/2=(ln 2)/k (Eq. 1)
Intrinsic clearance (Clint) (mL/min/10^6 cells) is calculated from: Clint=k/c (Eq. 2) where c is the cell concentration in 10^6 cells/mL.
Conversion to apparent clearance (Clapp) (mL/min/kg) is done by Eq. 3: Clapp=Clint×a×b/d (Eq. 3) where a, b and d are the scaling factors for normalizing Clint to rat body weight.
The following rat scaling factors are used: • a: 120 (cells/liver weight (10^6 cells/g)) • b: 10 (liver weight (g)) • d: 0.25 (body weight (kg))
Apparent clearance is a measure of compound elimination from the liver. Apparent clearance below approximately 25 mL/min/kg rat body weight (corresponding to extraction ratio of approx. 30%) is considered as low clearance (high metabolic stability). Apparent clearance above approximately 165 mL/min/kg rat body weight (corresponding to extraction ratio of approx. 75%) is considered as high clearance (low metabolic stability).

[2] = molecular target: T1, human CaSR (Homo sapiens, UniProt P41180); experiment: Functional whole cell assay (IP1 accumulation, IP-One htrf) in CHO-K1 cells stably expressing human CaSR; format: cell-based; conditions: 2 mM Ca2+, 1 hour at 37° C., IP1 readout, read-out: Functional whole cell assay (modulation of human CaSR)
T1 construct: The ORF coding for the human CaSR (genebank: NM_000388) was acquired from Invitrogen Corp, USA
T1 sequence (P41180 20-1078): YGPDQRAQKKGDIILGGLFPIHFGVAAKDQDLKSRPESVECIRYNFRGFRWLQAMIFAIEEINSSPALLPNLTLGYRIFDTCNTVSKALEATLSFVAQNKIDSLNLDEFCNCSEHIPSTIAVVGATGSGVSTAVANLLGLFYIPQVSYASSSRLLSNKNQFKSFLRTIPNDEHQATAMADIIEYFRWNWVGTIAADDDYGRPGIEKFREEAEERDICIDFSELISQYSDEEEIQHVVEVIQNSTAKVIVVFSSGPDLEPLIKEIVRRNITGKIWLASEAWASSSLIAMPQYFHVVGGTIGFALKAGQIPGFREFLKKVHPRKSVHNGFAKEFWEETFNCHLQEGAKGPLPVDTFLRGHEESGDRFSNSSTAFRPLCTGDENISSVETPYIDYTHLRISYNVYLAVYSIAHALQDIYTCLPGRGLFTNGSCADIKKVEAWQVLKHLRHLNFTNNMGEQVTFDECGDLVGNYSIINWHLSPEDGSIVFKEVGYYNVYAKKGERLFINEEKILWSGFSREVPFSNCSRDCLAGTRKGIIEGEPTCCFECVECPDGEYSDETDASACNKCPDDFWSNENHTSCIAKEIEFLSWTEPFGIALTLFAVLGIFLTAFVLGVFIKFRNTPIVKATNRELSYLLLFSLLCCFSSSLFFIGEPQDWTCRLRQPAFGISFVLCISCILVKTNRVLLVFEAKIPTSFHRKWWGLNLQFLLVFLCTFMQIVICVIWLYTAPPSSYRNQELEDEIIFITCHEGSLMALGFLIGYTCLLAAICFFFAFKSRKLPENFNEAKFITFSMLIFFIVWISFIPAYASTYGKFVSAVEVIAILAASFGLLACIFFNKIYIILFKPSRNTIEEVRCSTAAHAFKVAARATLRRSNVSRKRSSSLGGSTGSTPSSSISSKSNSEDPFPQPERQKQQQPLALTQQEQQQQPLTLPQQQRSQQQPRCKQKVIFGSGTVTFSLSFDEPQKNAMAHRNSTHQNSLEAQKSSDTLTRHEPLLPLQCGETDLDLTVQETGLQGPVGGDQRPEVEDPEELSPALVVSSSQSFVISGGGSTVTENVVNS
Excerpt: The assay investigates a compound's functional ability to act as a biological positive modulator on the human CaSR. Activation of the receptor expressed on CHO-K1 cells is detected through the G alpha q pathway, the activation of phospholipase C and the accumulation of intracellular inositol phosphate (IP) as described earlier [Sandrine Ferry, Bruno Chatel, Robert H. Dodd, Christine Lair, Danielle Gully, Jean-Pierre Maffrand, and Martial Ruat. Effects of Divalent Cations and of a Calcimimetic on Adrenocorticotropic Hormone Release in Pituitary Tumor Cells. BIOCHEMICAL AND BIOPHYSICAL RESEARCH COMMUNICATIONS 238, 866-873 (1997)]. The human CaSR is stably expressed on a CHO-K1 cell clone, stimulated with a basal level of calcium and challenged with the tested compound. The level of IP1 is determined using the IP-One htrf kit (Cisbio, France). CHO-K1 cells not transfected with the CaSR fail to elicit an IP1 response upon calcium and/or compound stimulation.
The ORF coding for the human CaSR (genebank: NM_000388) was acquired from Invitrogen Corp, USA and subsequently cloned into the mammalian expression vector pCDA3.1.
CHO-K1 cells were transfected using Lipofectamine according to manufacturer's protocol (400.000 cells/well were seeded in a 6-well plate and transfected after 24 hours using 2 μg DNA and 5 μl lipofectamine). After another 24 hours the cells were detached, seeded and subjected to 1 mg/ml of G-418. Following 7 days growth single clones were picked, the CaSR expression evaluated using the 5C10 antibody against CaSR, the clones with the highest expression were selected and tested for functional response. The preferred clone was continuously cultured according to standard procedures described in ATCC (American Type Culture Collection) protocols for CHO-K1 with the addition of 500 μg/ml G-418.
On the assay day cells were harvested and resuspended to 13*10^6 cells/ml in stimulation buffer (containing: Hepes 10 mM, MgCl2 0.5 mM, KCl 4.2 mM, NaCl 146 mM, glucose 5.5 mM, LiCl 50 mM at pH 7.4). Five μl cell solution were pipetted into a well (white 384-well plate, Perkin Elmer Optiplate) followed by 5 μl compound diluted in a Ca^2+-containing (to the final concentration of 2 mM) buffer. After compound stimulation for 1 hour at 37° C. 10 μl of IP-One assay reagents were added and incubated for another 1 hour at room temperature. Finally the plate was read using a Perkin Elmer EnVision, according to protocol supplied by the IP-One assay kit manufacturer. The FRET ratio was calculated by dividing the 665 nm emission signal with that of the 615 nm.

Structure (SMILES)	Clearance (Clapp) in rat hepatocytes [1]	EC50 [2]
COc1cc([C@@H](C)NC2CC[C@H](c3ccc(OCC(=O)O)c(C(F)(F)F)c3)C2)ccc1F (mixture of isomers) [Compound 1021, 2-[4-[(1S)-3-[[(1R)-1-(4-fluoro-3-methoxy-phenyl)ethyl]amino]cyclopentyl]-2-(trifluoromethyl)phenoxy]acetic acid]	A (A: <30 mL/min/kg)	< 0.5 µM
C[C@@H](NC1CCC(c2ccc(CCC(=O)O)c(C(F)(F)F)c2)C1)c1cccc2ccccc12 (single isomer, unassigned) [Compound 1007]	B (B: 30-55 mL/min/kg)	< 0.5 µM
C[C@@H](NC1CC[C@@H](c2cc(OCC(=O)O)cc(C(F)(F)F)c2)C1)c1cccc2ccccc12 (single isomer, unassigned) [Compound 1023]	B (B: 30-55 mL/min/kg)	< 0.5 µM
COc1cc([C@@H](C)NC2CC[C@H](c3ccc(CCC(=O)O)c(C(F)(F)F)c3)C2)ccc1F (single isomer, unassigned) [Compound 1012]	A (A: <30 mL/min/kg)	< 0.5 µM
COc1cc([C@@H](C)NC2CC[C@@H](c3cc(OCC(=O)O)cc(C(F)(F)F)c3)C2)ccc1F (single isomer, unassigned) [Compound 1022]	A (A: <30 mL/min/kg)	< 0.5 µM
